Assay results taken from ChEMBL document CHEMBL4270481, “ALK5 kinase inhibitory activity and synthesis of 2,3,4-substituted 5,5-dimethyl-5,6-dihydro-4H-pyrrolo[1,2-b]pyrazoles” (Eur J Med Chem, 2017).

Experiments:
[1] = target: Mitogen-activated protein kinase kinase kinase 11 (Homo sapiens) (UniProt Q16584); assay: Inhibition of MLK3 (unknown origin) assessed as residual enzyme activity at 1 uM relative to untreated control
K562 = assay: Cytotoxicity against human K562 cells assessed as decrease in cell proliferation after 72 hrs by calcein AM staining-based assay; assay type: functional; conditions: K562, 72 h
[2] = target: Ribosomal protein S6 kinase alpha-1 (Homo sapiens) (UniProt Q15418); assay: Inhibition of RSK1 (unknown origin) assessed as residual enzyme activity at 1 uM relative to untreated control
Chain of Ribosomal protein S6 kinase alpha-1 (Homo sapiens) (Q15418 whole entry): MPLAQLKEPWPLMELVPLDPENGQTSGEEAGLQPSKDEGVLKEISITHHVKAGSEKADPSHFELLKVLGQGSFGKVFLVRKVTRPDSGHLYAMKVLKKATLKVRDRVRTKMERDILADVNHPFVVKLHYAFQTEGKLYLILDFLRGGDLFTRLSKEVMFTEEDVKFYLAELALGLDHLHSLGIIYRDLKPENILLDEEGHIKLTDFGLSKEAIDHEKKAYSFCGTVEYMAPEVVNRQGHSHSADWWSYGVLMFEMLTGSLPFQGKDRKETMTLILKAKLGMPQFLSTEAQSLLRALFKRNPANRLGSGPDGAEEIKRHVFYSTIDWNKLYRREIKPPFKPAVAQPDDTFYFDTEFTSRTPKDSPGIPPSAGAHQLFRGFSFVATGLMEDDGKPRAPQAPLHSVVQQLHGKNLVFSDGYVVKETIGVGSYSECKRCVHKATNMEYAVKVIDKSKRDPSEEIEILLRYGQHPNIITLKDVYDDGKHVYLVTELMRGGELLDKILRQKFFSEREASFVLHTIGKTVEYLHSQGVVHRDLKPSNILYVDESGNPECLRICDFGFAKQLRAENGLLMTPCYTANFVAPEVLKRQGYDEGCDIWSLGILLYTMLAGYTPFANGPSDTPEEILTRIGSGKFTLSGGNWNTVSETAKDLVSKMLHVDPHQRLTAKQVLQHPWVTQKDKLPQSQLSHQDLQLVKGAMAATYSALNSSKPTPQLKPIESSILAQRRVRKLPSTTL

Chain of Mitogen-activated protein kinase kinase kinase 11 (Homo sapiens) (Q16584 whole entry, looked up): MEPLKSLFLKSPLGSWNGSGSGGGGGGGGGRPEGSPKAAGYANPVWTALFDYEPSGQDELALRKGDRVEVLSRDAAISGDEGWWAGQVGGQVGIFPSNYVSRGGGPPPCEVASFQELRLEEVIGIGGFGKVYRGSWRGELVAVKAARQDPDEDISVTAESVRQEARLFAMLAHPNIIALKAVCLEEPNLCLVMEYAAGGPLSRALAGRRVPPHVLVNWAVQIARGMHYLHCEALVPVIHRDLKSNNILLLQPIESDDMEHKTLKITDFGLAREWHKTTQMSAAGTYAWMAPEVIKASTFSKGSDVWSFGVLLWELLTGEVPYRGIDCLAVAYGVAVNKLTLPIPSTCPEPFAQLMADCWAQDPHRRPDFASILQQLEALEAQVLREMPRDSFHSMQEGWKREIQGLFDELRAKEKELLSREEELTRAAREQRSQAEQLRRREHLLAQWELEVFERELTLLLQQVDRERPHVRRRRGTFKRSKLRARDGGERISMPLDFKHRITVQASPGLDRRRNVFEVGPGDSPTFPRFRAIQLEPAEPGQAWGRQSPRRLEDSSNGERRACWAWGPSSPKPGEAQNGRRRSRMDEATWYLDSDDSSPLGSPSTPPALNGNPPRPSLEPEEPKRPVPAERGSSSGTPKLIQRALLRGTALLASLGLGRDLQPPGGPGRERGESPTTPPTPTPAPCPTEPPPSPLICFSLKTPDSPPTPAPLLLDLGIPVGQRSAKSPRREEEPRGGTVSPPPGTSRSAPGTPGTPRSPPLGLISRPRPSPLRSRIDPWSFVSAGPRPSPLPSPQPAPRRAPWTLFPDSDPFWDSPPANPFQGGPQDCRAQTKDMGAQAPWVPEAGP

Cc1cccc(-c2nn3c(c2-c2ccc(O)cc2)C(C)C(C)(C)C3)n1 (stereo not drawn)
Activity [1]: 34%
IC50 (K562): > 100 µM
Activity [2]: 60 to 80%
